The values that follow come from patent US4524067A, “Soybean saponins, and a method of isolating the same” (Osaka Chemical Laboratory Co., Ltd., priority 1979, dated 1985).

Where two headings read alike, the source gives them in different places.

Data set [1] deals with lipid peroxides in the heart. Description: Inhibition of formation of lipid peroxides in the heart of Adreamycin-treated mice. The data set is classed as in vivo, mice (COF male). As to conditions: for Lipid peroxide, heart / Rate of inhibition, heart: n = 5. On the procedure: (§1) It is widely known that Adreamycin, which is an oncostatic, inhibits the synthesis of DNA by combining therewith, and the metabolism of lipids in the heart to cause deposition of lipid peroxides therein, leading to miocardosis.
(§2) (1) The tests were conducted with groups of five COF male mice, five week old, weighing 20 to 25 g each. 15 mg/kg of Adreamycin (product of Kyowa Hakko Kogyo, Japan) were intraperitoneally injected into each mouse (0.15 ml of the medicine per 10 g of mouse weight).
(§3) The administration of each of the medicines to be tested as shown in Table 1 below was started one day prior to the administration of Adreamycin, and continued intraperitoneally for five days at a rate of 0.10 ml per 10 g of mouse weight. All the medicines tested were suspended or emulsified (only vitamin E) in a 0.9% physiological solution of sodium chloride, or a 0.9% physiological solution of sodium chloride containing 1% of Tween 80 immediately before they were applied. All the medicines tested were administered at noon every day, and Adreamycin was given three hours after the administration of the medicines tested. The saponin component of this invention was given in the amount of 1,000 mg/kg, 500 mg/kg, 125 mg/kg, 50 mg/kg, 25 mg/kg and 12.5 mg/kg, vitamin E in the amount of 1,000 mg/kg and 250 mg/kg, and vitamin B2 in the amount of 1,000 mg/kg, while a 0.9% physiological solution of sodium chloride was given to the mice of the control group.
(§4) (2) On the sixth day, each mouse was killed by dislocation of the cervical vertebrae, and its heart and liver were picked out immediately. After their wet weights were measured, a 2% homogenate was prepared with a 0.9% physiological solution of sodium chloride by a Potter homogenizer made of Teflon while it was being cooled with ice.
(§5) 0.5 ml of a 3% aqueous solution of sodium lauryl sulfate was added into 0.2 ml of the aforementioned 2% homogenate, and they were mixed together by shaking for 30 seconds. Then, 1.5 ml of an acetic acid buffer solution having a pH value of 3.6, and 1.5 ml of a 0.8% solution of thiobarbituric acid were added thereinto, followed by addition of distilled water to make a total of 4.0 ml. After the resulting solution was shaked vigorously for 30 seconds, it was heated at 95° C. for an hour in an oil bath, and cooled with flowing water for five minutes. Then, 1.0 ml of 0.2N hydrochloric acid and 5.0 ml of a mixed solution of n-butanol and pyridine (15:1) were added into the solution, and after it was shaked violently, it was subjected to centrifugal separation at 3,000 rpm for 15 minutes, whereby the top n-butanol layer was separated, and its fluorescence spectrum was measured by a spectrophotofluorometer (Ex 515 nm and Em 553 nm). […] The quantity of lipid peroxides was obtained by applying the working curve to the values as actually measured.
(§6) The rate of inhibition of the formation of lipid peroxides was obtained in accordance with the following equation to compare the effects of the various medicines tested, and the quantities thereof employed, as shown in Table 1: [formula] wherein A: the concentration of lipid peroxides in the group of mice to which no Adreamycin had been given;
(§7) D: the concentration of lipid peroxides in the groups of mice to which both Adreamycin and the medicines to be tested had been administered.
(§8) Note: The rate of inhibition by each dosage was calculated by comparison with the values shown for the respective test numbers in the control group (i.e., applying the values of C shown for the control group).

Data set [2] is described as follows: Antioxidizing action for salad oil (lipid peroxide, Yagi's method). As to conditions: 180° C. for 40 min. On the procedure: Salad oil: Product of Nisshin Seiyu Co., Ltd., Japan.
Test oils were prepared by using various kinds of saponin components which were added into the salad oil in the amounts of 1 mg/ml and 0.1 mg/ml. These test oils and a control oil containing no saponin component were heated at 180° C. for 40 minutes, while oxygen was being blown thereinto. After they were cooled, the quantities of the lipid peroxides formed in the oils were determined by the Yagi's method [K. Yagi, Biochemie.

Another data set can be described thus: Solubility. The format is physicochemical.
A short description of data set [3]: pH / acidity of aqueous solution. The format is physicochemical.
For data set [4], the system named is lipid peroxides in the liver. Description: Inhibition of formation of lipid peroxides in the liver of Adreamycin-treated mice. The format is in vivo, mice (COF male). As to conditions: n = 5. As to the method:
as §1, §2, §3, §4, §5, §6, §7, §8

The test system of data set [5] is formation of lipid peroxides. As to conditions: prior art statement, cited from earlier work.
For data set [6] the following is noted: prior art statement; cited from earlier work.
For data set [7] the following is noted: prior art statement; cited from earlier work. The source holds these as a separate data set.

Regarding `COc1cccc2c1C(=O)c1c(O)c3c(c(O)c1C2=O)C[C@@](O)(C(=O)CO)C[C@@H]3O[C@H]1C[C@H](N)[C@H](O)[C@H](C)O1` [Adreamycin], the “Effect of Adreamycin on lipid peroxides” value in data set [1] (15 mg/kg i.p., heart and liver, mice) is “increases the lipid peroxides in the heart and liver”.

On to `CC1(C)C[C@H]2C3=CC[C@@H]4[C@@]5(C)CC[C@H](O[C@@H]6O[C@H](C(=O)O)[C@@H](O)[C@H](O)[C@H]6O[C@@H]6O[C@H](CO)[C@H](O)[C@H](O)[C@H]6O[C@@H]6O[C@H](CO)[C@@H](O)[C@H](O)[C@H]6O)[C@](C)(CO)[C@@H]5CC[C@@]4(C)[C@]3(C)CC[C@@]2(C)[C@H](O[C@@H]2OC[C@H](O)[C@H](O[C@@H]3O[C@H](CO)[C@@H](O)[C@H](O)[C@H]3O)[C@H]2O)[C@@H]1O` [Soyasaponin A1, 3-O-[β-D-glucopyranosyl(1→2)-β-D-galactopyranosyl-(1→2)-β-D-glucuronopyranosyl]-22-O-[β-D-glucopyranosyl(1→3)-α-L-arabinopyranosyl]-soyasapogenol A], for which, in data set [2] (0.1 mg/ml), the “Quantity of lipid peroxide” value was found to be 22.5 nmol/mL and the “Rate of inhibition of increase in lipid peroxide” value (shortened to “Rate of inhibition of increase”) is recorded as 74.8%. In data set [2] (1 mg/ml), the “Quantity of lipid peroxide” value is 13.8 nmol/mL and the “Rate of inhibition of increase” value was 91.5%. Besides, in “Solubility”, the Solubility result is “easily soluble in methanol, soluble in water, pyridine, dimethyl sulfoxide and ethanol, and insoluble in acetone, chloroform and ether”. Moreover, in data set [3] (10 mg in 1 ml of water), the “pH value of aqueous solution” value is 6.

`CC1(C)C[C@H]2C3=CC[C@@H]4[C@@]5(C)CC[C@H](O[C@@H]6O[C@H](C(=O)O)[C@@H](O)[C@H](O)[C@H]6O[C@@H]6O[C@H](CO)[C@H](O)[C@H](O)[C@H]6O)[C@](C)(CO)[C@@H]5CC[C@@]4(C)[C@]3(C)CC[C@@]2(C)[C@H](O[C@@H]2OC[C@H](O)[C@H](O[C@@H]3O[C@H](CO)[C@@H](O)[C@H](O)[C@H]3O)[C@H]2O)[C@@H]1O` [Soyasaponin A2, 3-O-[β-D-galactopyranosyl-(1→2)-β-D-glucuronopyranosyl]-22-O-[β-D-glucopyranosyl (1→3)-α-L-arabinopyranosyl]-soyasapogenol A]: in data set [2] (0.1 mg/ml), the “Quantity of lipid peroxide” value was 60.0 nmol/mL and the “Rate of inhibition of increase” value is reported as 2.5%. Also, in data set [2] (1 mg/ml), the “Quantity of lipid peroxide” value came out at 38.8 nmol/mL and the “Rate of inhibition of increase” value is 43.4%. For the same molecule, the Solubility entry in “Solubility” was “easily soluble in methanol, soluble in water, pyridine, dimethyl sulfoxide and ethanol, and insoluble in acetone, chloroform and ether”. For the same molecule, the “pH value of aqueous solution” value in data set [3] (5 mg in 1 ml of water) worked out at 6.

As to `C[C@@H]1O[C@@H](O[C@H]2[C@H](O[C@H]3[C@H](O[C@H]4CC[C@@]5(C)[C@@H](CC[C@]6(C)[C@@H]5CC=C5[C@@H]7CC(C)(C)C[C@@H](O)[C@]7(C)CC[C@]56C)[C@@]4(C)CO)O[C@H](C(=O)O)[C@@H](O)[C@@H]3O)O[C@H](CO)[C@H](O)[C@@H]2O)[C@H](O)[C@H](O)[C@H]1O` [Soyasaponin I, 3-O-[α-L-rhamnopyranosyl(1→2)-β-D-galactopyranosyl(1→2)-β-D-glucuronopyranosyl]-soyasapogenol B], in data set [2] (0.1 mg/ml), the “Quantity of lipid peroxide” value was found to be 45.6 nmol/mL and the “Rate of inhibition of increase” value came out at 30.3%. In data set [2] (1 mg/ml), the “Quantity of lipid peroxide” value came to 10.6 nmol/mL and the “Rate of inhibition of increase” value is on record as 97.7%.

Turning to `C[C@@H]1O[C@@H](O[C@H]2[C@H](O[C@H]3[C@H](O[C@H]4CC[C@@]5(C)[C@@H](CC[C@]6(C)[C@@H]5CC=C5[C@@H]7CC(C)(C)C[C@@H](O)[C@]7(C)CC[C@]56C)[C@@]4(C)CO)O[C@H](C(=O)O)[C@@H](O)[C@@H]3O)OC[C@H](O)[C@@H]2O)[C@H](O)[C@H](O)[C@H]1O` [Soyasaponin II, 3-O-[α-L-rhamnopyranosyl(1→2)-α-L-arabinopyranosyl(1→2)-β-D-glucuronopyranosyl]-soyasapogenol B], in data set [2] (0.1 mg/ml), the “Quantity of lipid peroxide” value came to 46.3 nmol/mL and the “Rate of inhibition of increase” value came to 28.9%. Moreover, in data set [2] (1 mg/ml), the “Quantity of lipid peroxide” value was 80.6 nmol/mL and the “Rate of inhibition of increase” value is listed as -37.2%.

As for `CC1(C)C[C@@H](O)[C@]2(C)CC[C@]3(C)C(=CC[C@@H]4[C@@]5(C)CC[C@H](O[C@@H]6O[C@H](C(=O)O)[C@@H](O)[C@H](O)[C@H]6O[C@@H]6O[C@H](CO)[C@H](O)[C@H](O)[C@H]6O)[C@](C)(CO)[C@@H]5CC[C@]43C)[C@@H]2C1` [Soyasaponin III, 3-O-[β-D-galactopyranosyl(1→2)-β-D-glucuronopyranosyl]-soyasapogenol B], the “Quantity of lipid peroxide” value in data set [2] (0.1 mg/ml) was 45.6 nmol/mL; in data set [2] (1 mg/ml) it was 8.8 nmol/mL. For the same molecule, the “Rate of inhibition of increase” value was 30.3% in data set [2] (0.1 mg/ml) and 101.2% in data set [2] (1 mg/ml).

For `Cc1cc2nc3c(=O)[nH]c(=O)nc-3n(C[C@H](O)[C@H](O)[C@H](O)CO)c2cc1C` [Vitamin B2, riboflavin], in data set [1] (1000 mg/kg i.p., test No. I), the “Lipid peroxide, heart” value turned out to be 153.61 ± 11.12 nmol/g and the “Rate of inhibition, heart” value came to 40.81. In data set [4] (1000 mg/kg i.p., test No. I), the “Lipid peroxide, liver” value worked out at 124.84 ± 10.26 nmol/g and the “Rate of inhibition, liver” value is 21.28. Also, the “Power of inhibiting the formation of lipid peroxides” value in data set [5] (compared with vitamin E) was “extremely lower power of inhibiting the formation of lipid peroxides than vitamin E”.

Regarding `Cc1c(C)c2c(c(C)c1O)CCC(C)(CCCC(C)CCCC(C)CCCC(C)C)O2` (stereo not drawn) [Vitamin E, α-tocopherol], in data set [1] (250 mg/kg i.p., test No. II), the “Lipid peroxide, heart” value turned out to be 86.34 ± 12.61 nmol/g and the “Rate of inhibition, heart” value was determined as 101.98. Moreover, in data set [1] (1000 mg/kg i.p., test No. I), the “Lipid peroxide, heart” value amounted to 106.87 ± 36.40 nmol/g and the “Rate of inhibition, heart” value worked out at 82.61. For the same molecule, in data set [4] (250 mg/kg i.p., test No. II), the “Lipid peroxide, liver” value is on record as 76.90 ± 8.15 nmol/g and the “Rate of inhibition, liver” value was found to be 94.79. Besides, in data set [4] (1000 mg/kg i.p., test No. I), the “Lipid peroxide, liver” value is recorded as 89.27 ± 26.33 nmol/g and the “Rate of inhibition, liver” value is 75.95. Moreover, in data set [6], the Solubility entry is “insoluble in water and soluble in oil”. Further, the “Storage in the body and side effects” value in data set [7] was “stored in the body for a long period of time, and produces side effects”. For the same molecule, the “Effectiveness for inhibiting the formation of lipid peroxides” value in data set [5] is reported as “effective agent for inhibiting the formation of lipid peroxides”.
